According to patent publication US20190059378A1, “SYNERGISTIC FUNGICIDAL COMPOSITION FOR CONTROLLING PLANT DISEASES” (Sumitomo Chemical Company, Limited, priority 2016, published 2019):

Columns and labels:
[1] = test system: Brown rust (Puccinia recondita); experiment: Test Example 4: foliar spray on wheat, Brown rust lesion area; format: in vivo, Puccinia recondita on wheat (cultivar. Shirogane); details: single use, foliar spray one day before inoculation
Protocol: Five(5) parts of the present compound 1-1, 35 parts of a mixture of white carbon and ammonium polyoxyethylene alkyl ether sulfate (the weight ratio of 1:1) and 55 parts of water were mixed, and the mixture was then finely-ground by a wet grinding method to obtain a flowable comprising the present compound 1-1. Separately, the flowable comprising the present compound 2 was prepared according to the above-mentioned similar method except that the present compound 2 was used instead of the present compound 1-1.
Each of the flowable comprising the present compound 1-1 and the flowable comprising the present compound 2 was diluted with water and if necessary, the resultant dilute solutions were mixed each other such that each concentration of the respective compounds in the dilution solution was adjusted to the concentration indicated in Table 4, to prepare the dilution solutions, respectively.
A plastic pot was filled with soil, and thereto wheat (cultivar. Shirogane) was seeded, and the plants were grown in a greenhouse for ten days. The above-mentioned dilution solutions were sprayed to foliar parts so as to adhere adequately onto the surfaces of leaves of the above wheats. After spraying the dilute solution, the plants were air-dried, and one day after the application, an aqueous suspension of uredospores of Brown rust (Puccinia recondita) was inoculated by spraying thereto. After the inoculation, the plants were placed at 27° C. under humid condition for one day, and were then cultivated under lighting for ten days, and a lesion area was examined (hereinafter referred to as “lesion area of treated group”).
Whereas, wheats were cultivated similarly to the treated group except that no foliage application of the above-mentioned agent solution was done, and Brown rust were inoculated, and the lesion area thereof was examined (hereinafter referred to as “lesion area of the untreated group”).
From each of the lesion area of the treated group and the untreated group, respectively, the efficacy of the treated group was calculated by the following Equation 2. […]

[2] = test system: Septoria leaf blotch (Mycosphaerella graminicola); experiment: Test Example 3: growth of Septoria leaf blotch in YBG medium in microtiter plate (absorbance at 550 nm); format: cell-based; details: single use, 18° C., four days
Protocol: Each of the present compound 1-1 or the present compound 2 was dissolved into dimethyl sulfoxide such that each concentration of these compounds was adjusted to one hundred fifty times as much as the concentration indicated in the below-mentioned Table 3. The resultant agent solution was dispensed into each microtiter plate (with 96 wells) in 1 μl portion thereof per well. […] The plate was cultivated at 18° C. for four days, thereby allowing Septoria leaf blotch (Mycosphaerella graminicola) to undergo proliferation, and the absorbance at 550 nm of each well of the microtiter plate was then measured to examine a degree of growth of Septoria leaf blotch (hereinafter referred to as “treated group”).
Whereas, Septoria leaf blotch was proliferated similarly to the case of the treated group except that dimethyl sulfoxide was used instead of the agent solution, and the degree of the growth was examined (hereinafter referred to as “untreated group”). The efficacy was calculated from each of the obtained degree of growth of the treated group and the untreated group respectively by the following “Equation 1”. […]

Row | Structure (SMILES) | Efficacy (%) ([1]; concentration in agent solution 0.0001 ppm) | Efficacy (%) ([1]; concentration in agent solution 0.01 ppm) | Efficacy (%) ([2]; concentration in medium 0.005 ppm) | Efficacy (%) ([1]; concentration in agent solution 0.001 ppm) | Efficacy (%) ([2]; concentration in medium 0.05 ppm)
1 | Cc1nnc(Cl)c(-c2c(F)cccc2F)c1-c1ccccc1 [Present compound 1-1] | 20 | 31 | 4 | – | –
2 | CC1CC(C)(C)c2c(F)ccc(NC(=O)c3cn(C)nc3C(F)F)c21 (centres unmarked) [Present compound 2] | – | – | – | 15 | 55
